According to patent publication US9629863B2, “CDK5 inhibitors and therapeutic uses thereof” (The Hong Kong University of Science and Technology, priority 2009, dated 2017):

Key:
[1] = molecular target: Cdk5/p25 (Homo sapiens, UniProt Q00535); assay: FRET-based Z'-LYTE Cdk5 kinase assay, Cdk5/p25; format: biochemical; conditions: for inhibition at 30 µM: compound 30 μM, 30 ng/ml Cdk5/p25, FIG. 3; for IC50: Cdk5/p25, Table 1; for inhibition at 200 µM: Cdk5/p25, at 200 μM; for mode of inhibition on Cdk5/p25 complex: 0.5, 1, 2 and 4 μM, increasing ATP, FIG. 11; for inhibitory effect on Cdk5/p25: FIG. 8-10, in words; for inhibition at 80 µM: Cdk5/p25, at 80 μM
Cdk5/p25, sequence (Q00535 whole entry, species assumed): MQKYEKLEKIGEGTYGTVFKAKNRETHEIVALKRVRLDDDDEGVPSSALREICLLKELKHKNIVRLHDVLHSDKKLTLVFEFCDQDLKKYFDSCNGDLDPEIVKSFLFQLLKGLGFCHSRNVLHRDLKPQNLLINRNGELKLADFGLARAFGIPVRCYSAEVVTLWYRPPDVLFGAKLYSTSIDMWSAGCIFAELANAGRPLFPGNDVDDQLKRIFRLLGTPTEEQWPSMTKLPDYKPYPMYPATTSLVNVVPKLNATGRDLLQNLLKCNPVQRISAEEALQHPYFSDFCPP
Cdk5/p25, sequence (Q15078 99-307 partner limits assumed, species assumed): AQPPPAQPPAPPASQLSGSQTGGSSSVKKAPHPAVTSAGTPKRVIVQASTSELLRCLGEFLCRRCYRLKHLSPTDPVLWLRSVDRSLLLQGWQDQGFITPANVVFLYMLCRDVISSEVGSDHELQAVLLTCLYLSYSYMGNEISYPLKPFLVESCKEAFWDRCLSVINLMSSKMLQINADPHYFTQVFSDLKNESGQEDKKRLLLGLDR
Experimental: (§1) Cdk5 kinase assay was performed as described in the instruction manual (Invitrogen, cat. no. PV3673). This assay employs a FRET-based, coupled-enzyme format and is based on the differential sensitivity of phosphorylated and non-phosphorylated peptides to proteolytic cleavage. The assay uses a synthetic peptide substrate (the Z′-LYTE™ peptide substrate) that is labeled with a donor fluorophore (coumarin) and an acceptor fluorophore (fluorescein) to make up a FRET pair. In the primary reaction, Cdk5 transfers the γ-phosphate of ATP to a serine/threonine residue on the substrate, while the presence of a kinase inhibitor in the primary reaction suppresses phosphorylation. […] Cleavage disrupts FRET between the donor and acceptor fluorophores on the non-phosphorylated substrate, while uncleaved phosphorylated substrate maintains FRET. The effectiveness of the compounds on inhibiting the Cdk5 activity is then measured by calculating the emission ratio.
(§2) The plate was then incubated for one hour at room temperature. Development solution was then added in the dark for another hour. […] To calculate the activity of cdk5/p25 and Cdk5/p35, Z′-LYTE phosphopeptide was used as a 100% phosphorylation control while nonphosphorylated Z′-LYTE peptide is used as a 0% phosphorylation control to establish the maximal and minimal emission ratio values which enable to calculate the percentage of kinase phosphorylation. To determine the inhibitory effect on cdk5 activity, fractions and compounds to be tested were included in the kinase reaction. Zero inhibition was determined by using DMSO (solvent) instead of the compounds in the reaction. […] Assays were done in quadruplicates and data was averaged from at least 4 independent experiments. Similar experimental protocols were performed for Cdk1/cyclin B and Cdk2/cyclin A kinase activity study. Activity of each kinase complex was evaluated by titration, and the resultant value of EC30 was used in the inhibitory study. Since activity of kinase complexes varies with different batches of preparation, EC30 will be determined in each new batch of kinases. […] Kinetic studies of compounds were performed by Cdk5/p25 kinase assays with various concentrations of ATP and tested compounds. The kinetic parameters were determined by a nonlinear least-squares program using GraphPad Prism 5 software.
(§3) Using the FRET-based Cdk5 kinase assay method described above, the compounds of the present invention were examined for their inhibitory effects on Cdk5 kinase activity. The amount of Cdk5/25 and Cdk5/p35 used for screening Cdk5 inhibitors is EC30 of the kinase complex and the EC30 was determined with a titration study of kinase complex. The effectiveness of the compounds on inhibiting Cdk5 activity was then measured by comparing the percent phosphorylation of peptide substrates by Cdk5 kinase in the presence of test compounds and percent phosphorylation of peptide substrates by Cdk5 without test compounds.
Seven natural compounds isolated from Rhodiola rosea (F199) were selected for IC50 and maximal inhibition determination. Various concentrations of the F199 compounds were incubated with Cdk5/p25. The effectiveness of the compounds on inhibiting Cdk5 activity was then calculated by comparing the percent phosphorylation of peptide substrates by Cdk5/p25 in the presence of test compounds and percent phosphorylation of peptide substrates by Cdk5/p25 without test compounds.

[2] = molecular target: Cdk5/p35 (Homo sapiens, UniProt Q00535); assay: FRET-based Z'-LYTE Cdk5 kinase assay, Cdk5/p35; format: biochemical; conditions: for inhibition at 30 µM: compound 30 μM, 30 ng/ml Cdk5/p35, FIG. 3; for inhibitory effect on Cdk5/p35: FIG. 8-10, in words
Cdk5/p35, sequence (Q00535 whole entry, species assumed): as the sequence (Q00535 whole entry, species assumed) above
Cdk5/p35, sequence (Q15078 whole entry partner, species assumed): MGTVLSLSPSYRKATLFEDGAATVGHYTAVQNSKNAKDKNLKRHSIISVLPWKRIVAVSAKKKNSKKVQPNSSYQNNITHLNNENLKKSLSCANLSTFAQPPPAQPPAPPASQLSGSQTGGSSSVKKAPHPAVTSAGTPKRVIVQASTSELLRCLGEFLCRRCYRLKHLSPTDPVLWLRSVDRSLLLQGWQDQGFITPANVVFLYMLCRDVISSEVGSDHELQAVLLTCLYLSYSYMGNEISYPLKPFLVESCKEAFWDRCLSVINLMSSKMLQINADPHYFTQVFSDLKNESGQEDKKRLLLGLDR
Experimental: as §1, §2, §3

[3] = molecular target: Cdk5 (Homo sapiens, UniProt Q00535); conditions: reported elsewhere, controls; cited from earlier work
Cdk5, sequence (Q00535 whole entry, species assumed): as the sequence (Q00535 whole entry, species assumed) above
Cdk5, sequence (Q15078 whole entry partner, species assumed): as the sequence (Q15078 whole entry partner, species assumed) above

[4] = tested on: rat cortical neurons; assay: Aβ assay (MTT) in cortical neurons; format: cell-based; conditions: about 30 and 50 μM, Aβ25-35 10 μM, vs DMSO control
Experimental: Embryonic rat cortical neurons (7 DIV) were pre-treated with various concentrations of compounds (3-50 μM) and then co-incubated with Aβ25-35 (10 μM). After overnight incubation, the MTT assay was performed. Cell survival was calculated as a percentage compared to the vehicle control (DMSO). Assays were conducted in duplicates and data were compared with student-t test. *=P<0.05.
Cortical neurons at 7 DIV in culture isolated from embryonic day 18 rats were used as cell models in the assay. Toxicity caused by Aβ25-35 peptide in these cells was evaluated by MTT detection after […]. The Aβ assay was performed to investigate the ability of the invention to protect cortical neurons from cell death induced by exogenous Aβ25-35 peptide addition. Assays were done in duplicates and data was averaged from at least 3 independent experiments.
Exogenous addition of Aβ initiates cell death of neuronal cultures via apoptosis. The MTT assay, a well-known cell death assay, was performed to study the ability of the compounds of the present invention to prevent Aβ-induced excitotoxicity in primary cortical neuronal cells. Embryonic rat cortical neurons (7 DIV) were pre-treated with various concentrations of the compounds (3-50 μM) and then co-incubated with Aβ25-35 (10 μM). After overnight incubation, the MTT assay was performed. Cell survival was calculated as a percentage compared to the vehicle control (DMSO). Assays were conducted in duplicates and data were analyzed with student-t test. *=P<0.05. The results of exemplary compounds, F199-C6, F199-C34 and F199-C22 are presented in FIG. 5, FIG. 6 and FIG. 7, respectively.

[5] = molecular target: Cdk1/cyclin B (Homo sapiens, UniProt P06493); assay: Z'-LYTE kinase assay, Cdk1/cyclin B; format: biochemical; conditions: FIG. 8-10, in words
Cdk1/cyclin B, sequence (P06493 whole entry, species assumed): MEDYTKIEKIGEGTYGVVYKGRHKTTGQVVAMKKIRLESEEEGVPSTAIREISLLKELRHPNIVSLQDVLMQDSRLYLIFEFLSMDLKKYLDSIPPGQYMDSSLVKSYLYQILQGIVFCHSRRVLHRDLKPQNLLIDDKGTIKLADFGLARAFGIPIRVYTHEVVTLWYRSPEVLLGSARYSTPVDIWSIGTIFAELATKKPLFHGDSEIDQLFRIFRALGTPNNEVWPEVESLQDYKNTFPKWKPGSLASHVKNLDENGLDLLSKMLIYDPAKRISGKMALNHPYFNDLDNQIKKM
Cdk1/cyclin B, sequence (P14635 whole entry partner, species assumed): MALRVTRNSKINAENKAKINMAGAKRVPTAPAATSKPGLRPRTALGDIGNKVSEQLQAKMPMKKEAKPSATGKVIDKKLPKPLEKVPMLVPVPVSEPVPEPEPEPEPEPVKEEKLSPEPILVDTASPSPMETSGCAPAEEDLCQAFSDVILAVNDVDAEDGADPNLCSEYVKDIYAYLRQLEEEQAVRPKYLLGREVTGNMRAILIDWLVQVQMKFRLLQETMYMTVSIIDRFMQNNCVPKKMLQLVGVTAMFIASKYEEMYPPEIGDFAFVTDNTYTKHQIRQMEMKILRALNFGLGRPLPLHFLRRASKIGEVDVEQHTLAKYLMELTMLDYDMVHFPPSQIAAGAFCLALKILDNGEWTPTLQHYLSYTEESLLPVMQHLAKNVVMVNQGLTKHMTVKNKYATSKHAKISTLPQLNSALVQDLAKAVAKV
Experimental: (§4) Cdk5 kinase assay was performed by adding Z′-LYTE™ peptide substrate and ATP together with Cdk5/p25 or Cdk5/p35 kinase solution in a 384-well black polystyrene plate (Corning 3676). The plate was then incubated for one hour at room temperature. Development solution was then added in the dark for another hour. Finally, stop solution was added and the coumarin and fluorescein emission signals were measured on a fluorescence plate reader (Tecan, infinite F500) (excitation: 400 nm, emission 445 and […], respectively). To calculate the activity of cdk5/p25 and Cdk5/p35, Z′-LYTE phosphopeptide was used as a 100% phosphorylation control while nonphosphorylated Z′-LYTE peptide is used as a 0% phosphorylation control to establish the maximal and minimal emission ratio values which enable to calculate the percentage of kinase phosphorylation. To determine the inhibitory effect on cdk5 activity, fractions and compounds to be tested were included in the kinase reaction. Zero inhibition was determined by using DMSO (solvent) instead of the compounds in the reaction. […]. Assays were done in quadruplicates and data was averaged from at least 4 independent experiments. Similar experimental protocols were performed for Cdk1/cyclin B and Cdk2/cyclin A kinase activity study. Activity of each kinase complex was evaluated by titration, and the resultant value of EC30 was used in the inhibitory study. Since activity of kinase complexes varies with different batches of preparation, EC30 will be determined in each new batch of kinases. […] Kinetic studies of compounds were performed by Cdk5/p25 kinase assays with various concentrations of ATP and tested compounds. The kinetic parameters were determined by a nonlinear least-squares program using GraphPad Prism 5 software.

[6] = molecular target: Cdk2/cyclin A (Homo sapiens, UniProt P24941); assay: Z'-LYTE kinase assay, Cdk2/cyclin A; format: biochemical; conditions: FIG. 8-10, in words
Experimental: as §4

[7] = tested on: formalin-induced pain; assay: Animal model of pain (formalin paw-licking); format: in vivo, mice
Experimental: Adult ICR mice (6-8 week-old) habituated in the experimental room for 3 days before the testing. Testing was conducted from 9 am to 3 pm. Mice were randomly grouped and weighed. Mice were pretreated with a single dose of F199-C16 (10-100 mg/kg, intraperitoneal injection) and then injected with 10 μl of 2.5% formalin in the subplantar of the right hind paw. The licking time (in seconds) was recorded during 0-10 minutes (early phase) and in 11-40 minutes (late phase) after formalin injection. The whole process was monitored and recorded by a digital monochrome video camera. Data were expressed as the mean±SEM. (*p<0.05; ANOVA, with Student-Newman Keuls test).
The effect of F199-C16 was examined in an animal model of pain. The pain was induced by injecting formalin into the paw of the mouse.

Row | Structure (SMILES) | inhibition at 30 µM [1] [%] | inhibition at 30 µM [2] [%] | IC50 [1] [µM] | inhibition at 200 µM ([1]; read-out: Maximum inhibition) [%] | inhibitory effect on Cdk5/p25 [1] | inhibitory effect on Cdk5/p35 [2] | inhibitory effect on Cdk1/cyclin B [5] | inhibitory effect on Cdk2/cyclin A [6] | neuronal cell survival against Aβ toxicity [4] | further results
1 | O=c1c(O)c(-c2ccc(O)cc2)oc2cc(O)cc(O)c12 [Compound F199-C2, kaempferol] |  |  |  |  |  |  |  |  |  | reported inhibition of Cdk5 activity [3]: moderately inhibit Cdk5 activity
2 | O=C(O)c1cc(O)c(O)c(O)c1 [Compound F199-C4, gallic acid] | 25 to 50 | 25 to 50 | 40.6 | 64.2 |  |  |  |  |  | 
3 | O=c1c(O)c(-c2ccc(O)cc2)oc2c(OC3OCC(O)C(O)C3O)c(O)cc(O)c12 (stereo not shown) [Compound F199-C6, rhodalin] | 25 to 50 | 25 to 50 | 34.4 | 56.6 |  |  |  |  | significantly promoted neuronal cell survival | 
4 | O=C(OCC1OC(OC/C=C/c2ccccc2)C(O)C(O)C1O)c1cc(O)c(O)c(O)c1 (stereo not shown) [Compound F199-C22, 6-O-galloyl rosin] | < 25 | < 25 | 20.1 |  |  |  |  |  | significantly promoted neuronal cell survival | inhibition at 80 µM ([1]; read-out: Maximum inhibition): 46.5%
5 | COc1ccc(-c2oc3c(O)c(O)cc(O)c3c(=O)c2O)cc1 [Compound F199-C23, 4′-methoxyherbacetin] | 50 to 75 | 50 to 75 | 1.21 |  | inhibited similarly | inhibited similarly | inhibited similarly | minimal |  | mode of inhibition on Cdk5/p25 complex [1]: mixed inhibition; inhibition at 20 µM ([1]; Cdk5/p25, at 20 μM, read-out: Maximum inhibition): 45%

More lines, main results first:

Row | inhibition at 30 µM [1] [%] | inhibition at 30 µM [2] [%] | IC50 [1] [µM] | inhibition at 200 µM ([1]; read-out: Maximum inhibition) [%] | inhibitory effect on Cdk5/p25 [1] | inhibitory effect on Cdk5/p35 [2] | inhibitory effect on Cdk1/cyclin B [5] | inhibitory effect on Cdk2/cyclin A [6] | Structure (SMILES) | neuronal cell survival against Aβ toxicity [4] | further results
6 | < 25 | < 25 |  |  |  |  |  |  | CC[C@H](CC[C@@H](C)[C@H]1CC[C@H]2[C@@H]3CC=C4C[C@@H](O[C@@H]5O[C@H](CO)[C@@H](O)[C@H](O)[C@H]5O)CC[C@]4(C)[C@H]3CC[C@]12C)C(C)C [Compound F199-C1, daucosterol, reference compound] |  | reported inhibition of Cdk5 activity [3]: moderately inhibit Cdk5 activity
7 | 50 to 75 | 50 to 75 | 3.24 | 87.5 | milder inhibition | milder inhibition | potently | minimal | CC1OC(Oc2c(O)cc(O)c3c(=O)c(O)c(-c4ccc(O)cc4)oc23)C(O)C(O)C1O (stereo not shown) [Compound F199-C16, litvinolin] |  | mode of inhibition on Cdk5/p25 complex [1]: mixed inhibition; licking time, early phase (0-10 min) ([7]; 100 mg/kg i.p.): significantly reduced the licking time; licking time, late phase (11-40 min) ([7]; 100 mg/kg i.p.): significantly reduced the licking time; licking time of right hind paw ([7]; 10-100 mg/kg i.p., single dose, formalin): reduced the licking time of right hind paw in a dose-dependent manner
8 | 50 to 75 | 50 to 75 | 5.63 |  | potent inhibitory effect | less effect | less effect | less effect | O=C(OCC1OC(Oc2ccc(O)cc2)C(O)C(O)C1O)c1cc(O)c(O)c(O)c1 (stereo not shown) [Compound F199-C34, 6-O-galloyl arbutin] | significantly promoted neuronal cell survival | inhibition at 80 µM ([1]; read-out: Maximum inhibition): 70%
9 |  |  | 14.7 |  |  |  |  |  | O=C(O[C@@H]1Cc2c(O)cc(O)cc2O[C@@H]1c1cc(O)c(O)c(O)c1)c1cc(O)c(O)c(O)c1 [Compound F199-C35, epigallocatechin-3-gallate] |  | 
